Each block holds one molecule with its values, some of them ahead of it.
Key:
non-muscle actin = assay: F-actin co-sedimentation assay, non-muscle actin; type: binding
Method: Muscle actin, non-muscle actin, α-actinin and pyrene actin were purchased from Cytoskeleton, Inc. Actin was diluted to working concentrations in G buffer (2 mM Tris HCl, pH 8.0, 0.2 mM ATP, 0.1 mM CaCl2, 0.5 mM DTT).
Polymerization of actin was induced by addition of 0.1 volume 10×KMEI buffer (50 mM KCl, 1 mM MgCl2, 1 mM EGTA, 10 mM imidazole HCl, pH 7.0) and incubation for >1 h at room temperature (RT). […] The supernatant was removed and the pellet resuspended in 100 μl of 1×KMEI buffer. The amount of peptide was measured in a Cary Eclipse Fluorescence Spectrophotometer with excitation/emission set for FITC at 495 nm/520 nm. The bound/total ratio was calculated as the signal from the pellet divided by the total signal. The Kd was obtained by fitting to a hyperbolic curve.

F-actin in MDCK cells = assay: Double staining of PFA fixed MDCK cells with Cy3-conjugated phalloidin; type: cell-based, canine; settings: TIRF microscopy
Text: (§1) TIRE images were captured on an iMic-stand from Till photonics with an 1.45 NA 100× objective from Olympus. A 300 mW Argon laser and a 20 mW DPSS 561 nm laser were selected through an AOTF. A 2-axis scan head (Yanus II) was used to digitally adjust the TIRE angle. Images were collected with a cooled Imago QE CCD camera. Acquisition was controlled by the TILLvisION software package. Confocal images were collected on a standard Leica SP2 setup. Epifluorescence images were collected on a Zeiss axiovert 200M stand equipped with a climate control chamber from EMBL.

[1] = Solubility of peptide in PBS; type: physicochemical
[2] = system: MDCK and mouse embryonic fibroblasts; assay: Cytotoxicity, morphology and growth of transfected cells; type: cell-based; settings: transiently and stably transfected cells
Method: (§2) Mouse primary dendritic cells were generated from flushed bone marrow suspension as described previously^30. At day 8-10 cells were nucleofected using the primary mouse T cell kit and the Amaxa nucleoporator according to the manufacturers recommendations and immediately after transfection 200 ng/ml LPS were added over night and cells were subsequently sorted into GFP positive and negative fractions by using fluorescent activated cell sorting. MDCK cells and mouse embryonic Fibroblasts were grown according to standard procedures and transfected using lipofectamine.

[3] = system: primary rat hippocampal neurons; assay: Neuronal polarization of transfected hippocampal neurons; type: cell-based; settings: mock transfected cells 69±9%
Method: Primary hippocampal neurons were isolated from rat embryos as previously described. Briefly, hippocampi derived from E18 rats were dissected, trypsinized, and dissociated. Directly after dissociation, 5×10^5 hippocampal neurons were transfected by the Amaxa nucleofector system using 3 μg of highly purified plasmid DNA of pEGFP-Lifeact, pEGFP-actin or pEGFP-N2. The neurons were then immediately plated onto poly-L-lysine-coated glass coverslips in 6 cm petri dishes containing minimal essential medium (MEM) and 10% heat-inactivated horse serum. The cells were kept in 5% CO2 at 36.5° C. 6-12 hrs after plating the glass coverslips were then transferred into 6 cm petri dishes containing astrocytes in MEM and N2 supplements and kept in culture for 2DIV.
Neurons were categorized into three stages: neurons with a single axon, multiple axons or no axon. A neurite length >35 μm was used as threshold to define the axon. Developmental stages were observed by live cell microscopy as described.

mouse dendritic cells = assay: Chemotactic dendritic cell migration in 3-dimensional collagen matrix; type: cell-based; settings: CCL19 gradient
Method: as §2
PureCol™ gels containing mature dendritic cells were cast as described previously. Gels were overlayed with 50 μl of 0.6 μg/ml CCL19 (R&D Systems) in RPMI, 10% FCS and imaged on an inverted Axiovert 40 (Zeiss) microscopes, equipped with custom built climate chambers (5% CO2, 37° C., humidified). Under agarose dendritic cell migration was performed as described^31. Briefly, dendritic cells were added into wells punched into an agarose layer. Recombinant CCL19 was added into the adjacent well and, following the chemokine gradient, the cells entered the space between agarose and coverslip. Chemotaxing cells were subsequently imaged with TIRF microscopy.

[4] = system: mouse embryonic fibroblasts; assay: Lamellipodial retrograde actin flow in fibroblasts; type: cell-based; settings: transfected fibroblasts; indistinguishable from untransfected cells
Text: as §1
All image processing steps were performed in Metamorph (Molecular Devices). For visualization purposes sequences were routinely processed by sequential application of a local background subtraction filter and a 3×3 gauss low pass filter. Color overlays and kymographs were created with the respective functions in Metamorph.
as §2, with “MDCK cells and mouse embryonic Fibroblasts were grown according to standard procedures and transfected using lipofectamine.” left out

Kd (non-muscle actin): 5.4 ± 2.6 µM
Molecule: CC[C@H](C)[C@H](NC(=O)[C@H](CC(C)C)NC(=O)[C@H](CC(=O)O)NC(=O)[C@H](C)NC(=O)[C@@H](NC(=O)CNC(=O)[C@H](CCSC)NC(=S)Nc1ccc2c(c1)C(=O)OC21c2ccc(O)cc2Oc2cc(O)ccc21)C(C)C)C(=O)N[C@@H](CCCCN)C(=O)N[C@@H](CCCCN)C(=O)N[C@@H](Cc1ccccc1)C(=O)N[C@@H](CCC(=O)O)C(=O)N[C@@H](CO)C(=O)N[C@H](C(=O)N[C@@H](CO)C(=O)N[C@@H](CCCCN)C(=O)N[C@@H](CCC(=O)O)C(=O)N[C@@H](CCC(=O)O)C(=O)O)[C@@H](C)CC [F-Lifeact]
overlap with phalloidin staining (F-actin in MDCK cells): nearly complete overlap

solubility in PBS [1]: not soluble in PBS
Molecule: CC[C@H](C)[C@H](NC(=O)[C@H](CC(C)C)NC(=O)[C@H](CC(=O)O)NC(=O)[C@H](C)NC(=O)[C@@H](NC(=O)CNC(=O)[C@@H](N)CCSC)C(C)C)C(=O)N[C@@H](CCCCN)C(=O)N[C@@H](CCCCN)C(=O)N[C@@H](Cc1ccccc1)C(=O)N[C@@H](CCC(=O)O)C(=O)N[C@@H](CO)C(=O)N[C@H](C(=O)N[C@@H](CO)C(=O)N[C@@H](CCCCN)C(=O)N[C@@H](CCC(=O)O)C(=O)N[C@@H](CCC(=O)O)C(=O)O)[C@@H](C)CC [Lifeact]

Molecule: Lifeact-G: Lifeact-GFP fusion expressed from pEGFP-N1 backbone under the CMV promoter
signs of cytotoxicity [2]: no signs of cytotoxicity
cells formed one axon [3]: 60.1±0.2%
effect on speed of chemotactic dendritic cell migration (mouse dendritic cells): no effect
speed of retrograde flow in lamellipodia [4]: 4 μm/min
